# Tests used:
# Assay type in all cases: cell-based
# HI 30063 = assay: MIC for a gram negative bacterial strain (Table 2); conditions: gram negative bacterial strain HI 30063
# S. Aureus UC ® 9213 = assay: In vitro minimum inhibitory concentration (MIC) by agar dilution, gram-positive bacteria (Table 1); conditions: Staphylococcus aureus, UC9213
# Source text: (§1) The oxazolidinone antibacterial agents of this invention have useful activity against a variety of microorganisms. The in vitro activity of compounds of this invention can be assessed by standard testing procedures such as the determination of minimum inhibitory concentration (MIC) by agar dilution as described in "Methods for Dilution Antimicrobial Susceptibility Tests for Bacteria That Grow Aerobically" (MFT) published January 1983 by the National Committee for Clinical Laboratory Standards, 771 East Lancaster Avenue, Villanova, Pa. 19084, USA. The activity of selected compounds of this invention against Staphylococcus aureus and Streptococcus pneumoniae are shown in Table 1.
# S. pneumoniae UC ® 9912 = assay: as above; conditions: Streptococcus pneumoniae, UC9912
# Source text: as §1
SMILES,MIC (HI 30063) [µg/mL],MIC (S. Aureus UC ® 9213) [µg/mL],MIC (S. pneumoniae UC ® 9912) [µg/mL]
"CC(=O)NC[C@H]1CN(c2ccc(-c3nnc(CC[S+](C)[O-])s3)c(F)c2)C(=O)O1 (stereo partly drawn) [Example 24, (S)-N-[[3-[3-Fluoro-4-[5-[2-(methylsulfinyl)ethyl]-1,3,4-thiadiazol-2-yl]phenyl]-2-oxo-5-oxazolidinyl]methyl]acetamide]",4,4,0.25
"CC(=O)NC[C@H]1CN(c2ccc(-c3nnc(CCO)s3)c(F)c2)C(=O)O1 [Example 26, (S)-N-[[3-[3-Fluoro-4-[5-(2-hydroxyethyl)-1,3,4-thiadiazol-2-yl]phenyl]-2-oxo-5-oxazolidinyl]methyl]acetamide]",2,2,< 0.125
"CC(=O)NC[C@H]1CN(c2ccc(-c3n[nH]c(=O)s3)c(F)c2)C(=O)O1 [Example 29, (S)-N-[[3-[4-(4,5-Dihydro-5-oxo-1,3,4-thiadiazol-2-yl)-3-fluorophenyl]-2-oxo-5-oxazolidinyl]methyl]acetamide]",4,1,0.25
"CSc1nnc(-c2ccc(N3C[C@H](CNC(C)=O)OC3=O)cc2F)s1 [Example 31, (S)-N-[[3-[3-Fluoro-4-[5-(methylthio)-1,3,4-thiadiazol-2-yl]phenyl]-2-oxo-5-oxazolidinyl]methyl]acetamide]",4,0.5,< 0.125
"CCC(=O)NC[C@H]1CN(c2ccc(-c3nnc(C)s3)c(F)c2)C(=O)O1 [Example 32, (S)-N-[[3-[3-Fluoro-4-(5-methyl-1,3,4-thiadiazol-2-yl)phenyl]-2-oxo-5-oxazolidinyl]methyl]propanamide]",4,1,< 0.125
"CC(=O)NC[C@H]1CN(c2ccc(-c3nnc([S+](C)[O-])s3)c(F)c2)C(=O)O1 (stereo partly drawn) [Example 47, (5S)-N-[[3-[3-Fluoro-4-[5-(methylsulfinyl)-1,3,4-thiadiazol-2-yl]phenyl]-2-oxo-5-oxazolidinyl]methyl]acetamide]",4,2,0.25
"CC(=O)NC[C@H]1CN(c2ccc(-c3nnc(CCCO)s3)c(F)c2)C(=O)O1 [Example 50, (S)-N-[[3-[3-Fluoro-4-[5-(3-hydroxypropyl)-1,3,4-thiadiazol-2-yl]phenyl]-2-oxo-5-oxazolidinyl]methyl]acetamide]",4,2,0.25
"CC(=O)NC[C@H]1CN(c2ccc(-c3nnc([C@H](C)O)s3)c(F)c2)C(=O)O1 [Example 51, [S-(R*,R*)]-N-[[3-[3-Fluoro-4-[5-(1-hydroxyethyl)-1,3,4-thiadiazol-2-yl]phenyl]-2-oxo-5-oxazolidinyl]methyl]acetamide]",4,2,0.25
"CC(=O)NC[C@H]1CN(c2ccc(-c3nnc([C@@H](C)O)s3)c(F)c2)C(=O)O1 [Example 52, [S-(R*,S*)]-N-[[3-[3-Fluoro-4-[5-(1-hydroxyethyl)-1,3,4-thiadiazol-2-yl]phenyl]-2-oxo-5-oxazolidinyl]methyl]acetamide]",4,2,0.25
"CC(=O)NC[C@H]1CN(c2ccc(-c3nnc(CC[N+](=O)[O-])s3)c(F)c2)C(=O)O1 [Example 53, (S)-N-[[3-[3-Fluoro-4-[5-(2-nitroethyl)-1,3,4-thiadiazol-2-yl]phenyl]-2-oxo-5-oxazolidinyl]methyl]acetamide]",4,1,0.25
"CC(=O)NC[C@H]1CN(c2ccc(-c3nnc(CCC[N+](=O)[O-])s3)c(F)c2)C(=O)O1 [Example 54, (S)-N-[[3-[3-Fluoro-4-[5-(3-nitropropyl)-1,3,4-thiadiazol-2-yl]phenyl]-2-oxo-5-oxazolidinyl]methyl]acetamide]",4,2,0.25
"CC(=O)NC[C@H]1CN(c2ccc(-c3nnc([C@H](C)N)s3)c(F)c2)C(=O)O1 [Example 55, [S-(R*,R*)]-N-[[3-[4-[5-(1-Aminoethyl)-1,3,4-thiadiazol-2-yl]-3-fluorophenyl]-2-oxo-5-oxazolidinyl]methyl]acetamide]",4,8,< 0.125
"CC(=O)NC[C@H]1CN(c2ccc(-c3nnc([C@@H](C)N)s3)c(F)c2)C(=O)O1 [Example 56, [S-(R*,S*)]-N-[[3-[4-[5-(1-Aminoethyl)-1,3,4-thiadiazol-2-yl]-3-fluorophenyl]-2-oxo-5-oxazolidinyl]methyl]acetamide]",4,4,< 0.125
"CC(=O)NC[C@H]1CN(c2ccc(-c3nnc(CCCC#N)s3)c(F)c2)C(=O)O1 [Example 61, (S)-N-[[3-[4-[5-(3-Cyanopropyl)-1,3,4-thiadiazol-2-yl]-3-fluorophenyl]-2-oxo-5-oxazolidinyl]methyl]acetamide]",4,1,< 0.125
"CC(=O)NC[C@H]1CN(c2ccc(-c3nnc(CCC(C)=NO)s3)c(F)c2)C(=O)O1 [Example 63, (S)-N-[[3-[3-Fluoro-4-[5-[3-(hydroxyimino)butyl]-1,3,4-thiadiazol-2-yl]phenyl]-2-oxo-5-oxazolidinyl]methyl]acetamide]",4,2,< 0.125
"CC(=O)NC[C@H]1CN(c2ccc(-c3nnc(CC=NO)s3)c(F)c2)C(=O)O1 [Example 64, (S)-N-[[3-[3-Fluoro-4-[5-[2-(hydroxyimino)ethyl]-1,3,4-thiadiazol-2-yl]phenyl]-2-oxo-5-oxazolidinyl]methyl]acetamide]",2,1,< 0.125
"CC(=O)NC[C@H]1CN(c2ccc(-c3nnc(CCS(C)(=O)=O)s3)c(F)c2)C(=O)O1 [Example 70, (S)-N-[[3-[3-Fluoro-4-[5-[2-(methylsulfonyl)ethyl]-1,3,4-thiadiazol-2-yl]phenyl]-2-oxo-5-oxazolidinyl]methyl]acetamide]",4,4,< 0.5
"CCC(=O)NC[C@H]1CN(c2ccc(-c3nncs3)c(F)c2)C(=O)O1 [Example 71, (S)-N-[[3-[3-Fluoro-4-(1,3,4-thiadiazol-2-yl)phenyl]-2-oxo-5-oxazolidinyl]methyl]propanamide]",4,1,0.25
"CC(=S)NC[C@H]1CN(c2ccc(-c3nncs3)c(F)c2)C(=O)O1 [Example 74, (S)-N-[[3-[3-Fluoro-4-(1,3,4-thiadiazol-2-yl)phenyl]-2-oxo-5-oxazolidinyl]methyl]ethanethioamide]",1,0.25,< 0.125
"NC(=S)NC[C@H]1CN(c2ccc(-c3nncs3)c(F)c2)C(=O)O1 [Example 75, (S)-[[3-[3-Fluoro-4-(1,3,4-thiadiazol-2-yl)phenyl]-2-oxo-5-oxazolidinyl]methyl]thiourea]",1,0.25,< 0.125
"CCC(=S)NC[C@H]1CN(c2ccc(-c3nncs3)c(F)c2)C(=O)O1 [Example 76, (S)-N-[[3-[3-Fluoro-4-(1,3,4-thiadiazol-2-yl)phenyl]-2-oxo-5-oxazolidinyl]methyl]propanethioamide]",1,0.25,< 0.125
"CC(=S)NC[C@H]1CN(c2ccc(-c3nnc(CN)s3)c(F)c2)C(=O)O1 [Example 77, N-[((5S)-3-{4-[5-(aminomethyl)-1,3,4-thiadiazol-2-yl]-3-fluorophenyl}-2-oxo-1,3-oxazolidin-5-yl)methyl]ethanethioamide]",< 0.5,< 0.5,< 0.5
"CC(=O)OCC(=O)NCc1nnc(-c2ccc(N3C[C@H](CNC(C)=S)OC3=O)cc2F)s1 [Example 78, 2-({[5-(4-{(5S)-5-[(ethanethioylamino)methyl]-2-oxo-1,3-oxazolidin-3-yl}-2-fluorophenyl)-1,3,4-thiadiazol-2-yl]methyl}amino)-2-oxoethyl acetate]",4,2,< 0.5

# Reference: patent US5977373A, “Thiadiazolyl and oxadiazolyl phenyl oxazolidinone antibacterial agents” (Pharmacia & Upjohn Company, priority 1998, dated 1999)
